Experimental findings from patent publication US20150031572A1, “MEANS AND METHODS FOR ASSESSING NEURONAL TOXICITY” (priority 2012, published 2015) are described below.

The series can be described thus: Plasma metabolite profiling (GC-MS, LC-MS, SPE-LC-MS) of rats dosed once daily over 28 days; treatment ratios versus untreated control. It is filed as in vivo, rat. In a few lines: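 Male and female rats (5/sex/group) dosed once daily for 28 days; fasted anaesthetized animals bled retro-orbitally (EDTA plasma) on days 7, 14, 28, stored −80 °C under N2. Polar and lipid fractions profiled by GC-MS (derivatized), LC-MS/MRM; steroids by online SPE-LC-MS. Pool-normalized data; treatment ratios vs sex-matched controls, Welch test p-values.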

The mark [1] stands for this setting: plasma, female rats, day 7, high dose, Table 7b.
The mark [2] stands for this setting: plasma, female rats, day 14, high dose, Table 7a.
[3] abbreviates: plasma, female rats, day 14, high dose, Table 7b.
Setting [4] is: plasma, female rats, day 28, high dose, Table 7a.
Setting [5] is: plasma, female rats, day 28, high dose, Table 7b.
The mark [6] stands for this setting: plasma, male rats, day 7, high dose, Table 2a.
Where [7] appears, read: plasma, male rats, day 7, high dose, Table 2b.
Setting [8] is: plasma, male rats, day 14, high dose, Table 2b.
[9] abbreviates: plasma, male rats, day 28, high dose, Table 2a.
Setting [10] is: plasma, male rats, day 28, high dose, Table 2b.
[11] abbreviates: plasma, female rats, day 28, low dose, Table 1c.
[12] abbreviates: plasma, female rats, day 28, low dose, Table 1d.
Where [13] appears, read: plasma, male rats, day 28, low dose, Table 1b.

Structures can show the parent of a compound that is named as a salt. Marks after values point to notes of the source that are not given here.

Take `Fc1ccc([C@@H]2CCNC[C@H]2COc2ccc3c(c2)OCO3)cc1` [Paroxetine hydrochloride]: the “alpha-Tocopherol, ratio versus control” value is 1.08 (plasma, female rats, day 7, high dose, Table 7a); 1.31* under setting [2]; 1.32* (rat, in vivo). For the same compound, the “Adrenaline (Epi-nephrine), ratio versus control” value by setting is: under setting [1], 0.19*; under setting [3], 0.36*; under setting [5], 0.89. Also, the “Glutamate, ratio versus control” value was 0.7* under setting [1], 0.68* under setting [3] and 0.85 under setting [5]. The “Serotonin (5-HT), ratio versus control” value runs as follows: under setting [1], 0.09*; under setting [3], 0.07*; under setting [5], 0.04*. Moreover, the “4-Hydroxysphinganine (t18:0, Phytosphingosine), total, ratio versus control” value by setting is: under setting [2], 1.9*; under setting [4], 2.11*; (rat, in vivo) 1.99*. Also, the “Threonine, ratio versus control” value reads like this: under setting [2], 1.65*; under setting [4], 1.4*; (rat, in vivo) 1.41*.
On to `CCCC(C)C1(CC)C(=O)NC(=O)NC1=O` (stereo not shown) [Pentobarbital sodium i.p., Pentobarbital sodium], for which, where the note is “rat, in vivo”, the “3-Indoxylsulfate, ratio versus control” value was 1.44 *; the “Cysteine, ratio versus control” value was 0.64 *; the “Ketoleucine, ratio versus control” value worked out at 1.09; the “Malate, ratio versus control” value was 0.83 *. For the setting “rat, in vivo”, the “Pantothenic acid, ratio versus control” value was 1.14^; the “Phosphate (inorganic and organic phosphates), ratio versus control” value (from here on “Phosphate … ratio versus control”) is 1.21 *; the “Phosphatidylcholine (C16:0, C20:4), ratio versus control” value is 1 *; the “Phosphatidylcholine (C16:0, C22_6), ratio versus control” value is recorded as 0.94 *. For the same compound, the “alpha-Tocopherol, ratio versus control” value (rat, in vivo) is 1.23 *.
Consider `CC(=O)CCCCn1c(=O)c2c(ncn2C)n(C)c1=O` [Pentoxifylline], for which, under setting [6], the “Choline plasmalogen No 03, ratio versus control” value worked out at 1.01; the “Creatine, ratio versus control” value is on record as 0.95; the “Isoleucine, ratio versus control” value turned out to be 0.93; the “Valine, ratio versus control” value is recorded as 0.98*. For the same compound, under setting [7], the “Adrenaline (Epinephrine), ratio versus control” value was 0.34*; the “DAG (C18:1,C18:2), ratio versus control” value is reported as 0.51*; the “Glutamate, ratio versus control” value is given as 0.74*; the “Glycerol, polar fraction, ratio versus control” value is recorded as 0.73*. Under setting [7], the “Metanephrine, ratio versus control” value is 0.48*; the “Pyruvate, ratio versus control” value was 0.76*; the “TAG No 07, ratio versus control” value is given as 0.46*. Moreover, where the note is “plasma, male rats, day 14, high dose, Table 2a”, the “Creatine, ratio versus control” value is reported as 1.36*. Moreover, under setting [8], the “Adrenaline (Epinephrine), ratio versus control” value came out at 1.34; the “DAG (C18:1,C18:2), ratio versus control” value was 0.88*; the “Glutamate, ratio versus control” value was found to be 0.84; the “Glycerol, polar fraction, ratio versus control” value is listed as 0.74*. Moreover, under setting [8], the “Metanephrine, ratio versus control” value is reported as 0.61*; the “Pyruvate, ratio versus control” value is 0.62*; the “TAG No 07, ratio versus control” value was 0.93. In addition, under setting [9], the “Choline plasmalogen No 03, ratio versus control” value is 1.14*; the “Creatine, ratio versus control” value is given as 1.18*; the “Valine, ratio versus control” value is 1.1*. Further, under setting [10], the “Adrenaline (Epinephrine), ratio versus control” value is listed as 0.33*; the “DAG (C18:1,C18:2), ratio versus control” value is reported as 0.72*; the “Glutamate, ratio versus control” value is listed as 0.79*; the “Glycerol, polar fraction, ratio versus control” value was 0.8. Under setting [10], the “Metanephrine, ratio versus control” value is on record as 0.63*; the “Pyruvate, ratio versus control” value was 0.74*; the “TAG No 07, ratio versus control” value was 0.74*. Also, under “rat, in vivo”, the “Choline plasmalogen No 03, ratio versus control” value was 1.29* and the “Valine, ratio versus control” value is on record as 1.05*.
Turning to `CCC1(c2ccccc2)C(=O)NC(=O)NC1=O` [Phenobarbital sodium], where the note is “rat, in vivo”, the “3-Indoxylsulfate, ratio versus control” value is reported as 1.81 *; the “Coenzyme Q9, ratio versus control” value is reported as 1.08 *; the “Glutamate, ratio versus control” value is recorded as 0.78 *; the “Isoleucine, ratio versus control” value was 1.12 *. In addition, where the note is “rat, in vivo”, the “Ketoleucine, ratio versus control” value was 0.88 *; the “Malate, ratio versus control” value is 0.69 *; the “Pantothenic acid, ratio versus control” value was 1.33 *; the “Phosphate … ratio versus control” value was 1.17 *. Also, under “rat, in vivo”, the “Phosphatidylcholine (C16:0, C20:4), ratio versus control” value is reported as 0.99 *; the “Phosphatidylcholine (C16:0, C22_6), ratio versus control” value is recorded as 0.93 *; the “Pyruvate, ratio versus control” value is reported as 0.73 *; the “Valine, ratio versus control” value is reported as 1.15 *. Moreover, under “rat, in vivo”, the “alpha-Tocopherol, ratio versus control” value was 1.14 * and the “myo-Inositol, ratio versus control” value is on record as 0.94 *.
Consider `O=C1NC(=O)C(c2ccccc2)(c2ccccc2)N1` [Phenytoin], for which, under setting [11], the “Coenzyme Q9, ratio versus control” value is listed as 1.22 * and the “Valine, ratio versus control” value is on record as 1.36 *. For the same compound, under setting [12], the “Cysteine, ratio versus control” value is listed as 0.86 *; the “Glutamate, ratio versus control” value is on record as 0.81 *; the “Pyruvate, ratio versus control” value is 0.65 *; the “myo-Inositol, ratio versus control” value was 0.69 *. Moreover, the “3-Indoxylsulfate, ratio versus control” value (plasma, male rats, day 28, low dose, Table 1a) is 1.78^. Besides, under setting [13], the “Cysteine, ratio versus control” value was 0.73 *; the “Ketoleucine, ratio versus control” value is listed as 0.76 *; the “Malate, ratio versus control” value is listed as 0.84 *; the “Phosphatidylcholine (C16:0, C20:4), ratio versus control” value is recorded as 0.99 *. Besides, the “Phosphatidylcholine (C16:0, C22_6), ratio versus control” value under setting [13] is on record as 0.95 *. For the same compound, under “rat, in vivo”, the “Isoleucine, ratio versus control” value is recorded as 1.23 *; the “Pantothenic acid, ratio versus control” value was 1.25 *; the “Phosphate … ratio versus control” value is 1.25 *; the “alpha-Tocopherol, ratio versus control” value is given as 1.16 *.
